We go through 12 molecules from article PMC7698448, “Design, Synthesis, and Biological Evaluation of Pyridazinones Containing the (2-Fluorophenyl) Piperazine Moiety as Selective MAO-B Inhibitors” (Molecules, 2020).

SMILES strings stand for the structures. “Also recorded” adds a separate entry of the source.

The target of series [1] is T1, MAO-B (Homo sapiens, UniProt P27338).
T1 sequence (P27338 1-520): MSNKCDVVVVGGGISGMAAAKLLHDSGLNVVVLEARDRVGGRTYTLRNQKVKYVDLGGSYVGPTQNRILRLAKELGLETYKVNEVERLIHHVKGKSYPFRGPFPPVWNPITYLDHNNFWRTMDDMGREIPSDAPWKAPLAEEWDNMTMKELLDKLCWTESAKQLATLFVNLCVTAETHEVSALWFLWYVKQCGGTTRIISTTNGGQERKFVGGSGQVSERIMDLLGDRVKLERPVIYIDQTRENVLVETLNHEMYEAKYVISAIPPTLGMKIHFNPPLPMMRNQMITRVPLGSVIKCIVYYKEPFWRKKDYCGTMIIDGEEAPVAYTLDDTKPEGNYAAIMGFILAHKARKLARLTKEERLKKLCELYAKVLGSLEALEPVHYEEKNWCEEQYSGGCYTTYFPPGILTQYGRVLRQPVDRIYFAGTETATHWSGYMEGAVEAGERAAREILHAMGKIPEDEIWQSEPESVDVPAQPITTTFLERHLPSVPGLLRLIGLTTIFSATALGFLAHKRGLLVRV
The series is described as follows: Recombinant human MAO-B inhibition assay (benzylamine substrate). The following applies: for SI (IC50 of MAO-A/IC50 of MAO-B): selectivity index for MAO-B; for Times more potent on MAO-B than lazabemide: ratio of MAO-B potency versus reference reversible inhibitor lazabemide.
Description: Recombinant human MAO-A and MAO-B inhibitory activities of were continuously assayed as described previously [37], using kynuramine (0.06 mM) and benzylamine (0.3 mM), respectively. […] MAO-A and MAO-B inhibitory activities were measured after preincubating enzymes and inhibitors for 15 min. Enzymes and chemicals were obtained from Sigma-Aldrich (St. Louis, MO, USA).
(§2) Kinetic experiments were carried out at five substrate and three inhibitor concentrations [38].

The next series has as its target T2, recombinant human MAO-A (Homo sapiens, UniProt P21397).
T2 construct: purchased Sigma-Aldrich
T2 sequence (P21397 1-527): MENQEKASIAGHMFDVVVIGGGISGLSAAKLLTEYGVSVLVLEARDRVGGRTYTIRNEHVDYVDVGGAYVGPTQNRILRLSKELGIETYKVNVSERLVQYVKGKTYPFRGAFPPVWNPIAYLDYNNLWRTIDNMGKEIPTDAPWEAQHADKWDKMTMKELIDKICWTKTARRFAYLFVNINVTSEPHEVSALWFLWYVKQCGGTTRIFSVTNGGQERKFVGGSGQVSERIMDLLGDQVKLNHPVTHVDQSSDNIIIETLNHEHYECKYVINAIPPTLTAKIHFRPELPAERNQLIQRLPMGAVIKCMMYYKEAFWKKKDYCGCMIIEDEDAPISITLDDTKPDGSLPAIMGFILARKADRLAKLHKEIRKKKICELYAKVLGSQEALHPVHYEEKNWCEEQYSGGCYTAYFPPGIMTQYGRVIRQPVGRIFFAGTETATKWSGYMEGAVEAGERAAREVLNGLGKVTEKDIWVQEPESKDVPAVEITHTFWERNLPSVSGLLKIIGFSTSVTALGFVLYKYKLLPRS
Kind of series: Recombinant human MAO-A inhibition assay (kynuramine substrate). It is filed as biochemical. The following applies: kynuramine 0.06 mM, 15 min preincubation; for remaining activity at 10 µM: inhibitor 10 µM, read-out: Residual Activity (%) MAO-A (10 µM).

Series [2] addresses T1, MAO-B. Kind of series: Kinetics of MAO-B inhibition (Lineweaver-Burk and secondary plots). On the set-up: purchased Sigma-Aldrich. The series is classed as biochemical.
Description: as §2
The target of series [3] is T1, MAO-B. The series is described as follows: Reversibility of MAO-B inhibition by dialysis. The series is classed as biochemical. On the set-up: purchased Sigma-Aldrich. The following applies: for Relative MAO-B activity of dialyzed sample (AD) / Relative MAO-B activity of undialyzed sample (AU): 30 min preincubation, T3 0.080 µM, T6 0.020 µM, lazabemide 0.30 µM; for Relative MAO-B activity of dialyzed sample (AD): after dialysis; for Reversibility of MAO-B inhibition (recovery by dialysis): pargyline 0.060 µM. The protocol: Reversibility studies were performed using a dialysis-based method.
The reversibilities of T3 and T6 inhibitions were investigated by dialysis after preincubating them with MAO-B for 30 min, as previously described. […] Reversibilities were determined using the relative activities of undialyzed (AU) and dialyzed (AD) samples [40].

Another series deals with L929 cells. Kind of series: MTS cytotoxicity assay in L929 cells. It is filed as cell-based, mouse. The following applies: 48 h. How it is done: (§1) An MTS (5-(3-carboxymethoxyphenyl)-2-(4,5-dimethyl-thiazolyl)-3-(4-sulfophenyl)) tetrazolium assay was used to evaluate the cytotoxic activities of T3 and T6 by measuring formazan absorbance. MTS is converted to formazan by mitochondria in metabolically active cells via NAD(P)H-dependent dehydrogenase enzymes. L929 cells (a mouse fibroblast cell line) were used to evaluate the cytotoxicities. Briefly, cells (5 × 10^4 cells/well) were seeded into 96-well plates in DMEM containing 10% fetal bovine serum and 1% penicillin/streptomycin, and incubated for 24 h. After supernatants were removed, the cells were treated with the compounds dissolved in DMSO (at 1, 10, 20, 50, or 100 µM) in triplicate for 48 h at 37 °C in a 5% CO2 atmosphere. MTS reagent (Uptima, Interchim, Montluçon, France) was then added to each well and incubated for 3 h. Absorbances were measured at 490 nm using a microplate reader (BioTek, Winooski, VT, USA), and cell viabilities were calculated as percentage of untreated controls.
Background: Tetrazolium assays rely on reduction of a dye to a coloured formazan, in cell work by metabolically active cells.

Series [4] in a line: MTS cytotoxicity assay in L929 cells. It is filed as cell-based, mouse. The following applies: mouse, L929 cells (mouse fibroblast cell line), 48 h treatment. How it is done:
as §1

Description for recombinant human MAO-A: Recombinant human MAO-A and MAO-B inhibitory activities of were continuously assayed as described previously [37], using kynuramine (0.06 mM) and benzylamine (0.3 mM), respectively. […] MAO-A and MAO-B inhibitory activities were measured after preincubating enzymes and inhibitors for 15 min.
The inhibitory activities of the twelve compounds against MAO-A and MAO-B were first investigated at an inhibitor concentration of 10 µM. For the compounds showing residual activities of <50%, IC50 values for MAO-A and MAO-B inhibitions were determined. Kinetic experiments were carried out at five substrate and three inhibitor concentrations [38].

As for `O=C(Cn1nc(N2CCN(c3ccccc3F)CC2)ccc1=O)NN=Cc1ccccc1` [Compound T1], the IC50 on MAO-B [1] was determined as 7.68 ± 0.14 µM. In addition, the remaining activity at 10 µM on recombinant human MAO-A turned out to be 96.6 ± 1.2%.

Turning to `Cc1ccc(C=NNC(=O)Cn2nc(N3CCN(c4ccccc4F)CC3)ccc2=O)cc1` [Compound T2], at MAO-B [1], the IC50 was determined as 0.1 ± 0.035 µM and the “SI (IC50 of MAO-A/IC50 of MAO-B)” value came out at 42.9. In addition, at recombinant human MAO-A, the remaining activity at 10 µM is 24.6 ± 2.86% and the IC50 was 4.29 ± 0.12 µM.

For `O=C(Cn1nc(N2CCN(c3ccccc3F)CC2)ccc1=O)NN=Cc1ccccc1Cl` [Compound T3], on MAO-B [1], the IC50 worked out at 0.039 ± 0.0028 µM, the “Times more potent on MAO-B than lazabemide” value came to 3 and the “SI (IC50 of MAO-A/IC50 of MAO-B)” value worked out at 107.4. Further, at recombinant human MAO-A, the remaining activity at 10 µM stood at 24.6 ± 0.97% and the IC50 came out at 4.19 ± 0.27 µM. In addition, the “Type of MAO-B inhibition” value on MAO-B [2] is reported as “competitive inhibitors”. Also, on MAO-B [3], the “Relative MAO-B activity of dialyzed sample (AD)” value came out at 79.4%, the “Relative MAO-B activity of undialyzed sample (AU)” value came to 22.2% and the “Reversibility of MAO-B inhibition (recovery by dialysis)” value was “reversibly inhibit MAO-B; also recorded: reversible”. Also, in the series on L929 cells (1, 10, or 20 µM), the “Cytotoxic effect on L929 cells at 1, 10, or 20 µM” value is reported as “no significant death”. Further, the “Cytotoxic effect on L929 cells at 50 and 100 µM” value with L929 cells (50 and 100 µM) is given as “complete cell death”. The same molecule came in with an IC50 at 48 h in series [4] of 27.1 µM.

Take `O=C(Cn1nc(N2CCN(c3ccccc3F)CC2)ccc1=O)NN=Cc1ccc(Cl)cc1` [Compound T4]: the IC50 on MAO-B [1] was 0.099 ± 0.0069 µM. In addition, the remaining activity at 10 µM at recombinant human MAO-A stood at 75.2 ± 4.7%.

In the case of `O=C(Cn1nc(N2CCN(c3ccccc3F)CC2)ccc1=O)NN=Cc1ccc(Br)cc1` [Compound T5], the IC50 at MAO-B [1] was 1.68 ± 0.11 µM. At recombinant human MAO-A, the remaining activity at 10 µM was found to be 84 ± 0.68%.

With `COc1ccccc1C=NNC(=O)Cn1nc(N2CCN(c3ccccc3F)CC2)ccc1=O` [Compound T6], on MAO-B [1], the IC50 was 0.013 ± 0.0016 µM, the “Times more potent on MAO-B than lazabemide” value is listed as 11 and the “SI (IC50 of MAO-A/IC50 of MAO-B)” value was 120.8. The “MAO-B potency relative to pargyline” value on MAO-B [1] (versus reference irreversible inhibitor pargyline) is given as “twice as potent”. On recombinant human MAO-A, the remaining activity at 10 µM turned out to be 20.7 ± 0.62% and the IC50 was determined as 1.57 ± 0.8 µM. Further, the “Type of MAO-B inhibition” value on MAO-B [2] is “competitive inhibitors”. For the same molecule, on MAO-B [3], the “Relative MAO-B activity of dialyzed sample (AD)” value came to 79.0%, the “Relative MAO-B activity of undialyzed sample (AU)” value is 36.9% and the “Reversibility of MAO-B inhibition (recovery by dialysis)” value is on record as “reversibly inhibit MAO-B; also recorded: reversible”. In addition, the “Cytotoxic effect on L929 cells at any dose” value in the series on L929 cells (1, 10, 20, 50, or 100 µM) is “did not have a cytotoxic effect”. The IC50 at 48 h in series [4] was above 100 µM.

As to `CN(C)c1ccc(C=NNC(=O)Cn2nc(N3CCN(c4ccccc4F)CC3)ccc2=O)cc1` [Compound T7], the IC50 at MAO-B [1] amounted to 0.87 ± 0.056 µM. At recombinant human MAO-A, the remaining activity at 10 µM was 25.4 ± 6.92% and the IC50 worked out at 4.43 ± 0.29 µM.

On to `O=C(Cn1nc(N2CCN(c3ccccc3F)CC2)ccc1=O)NN=Cc1cccc(Br)c1` [Compound T8, 6-[4-(2-Fluorophenyl)piperazine-1-yl]-3(2H)-pyridazinone-2-acetyl-2-(3-bromobenzal)hydrazon], for which the melting point is 207 to 208 °C. On MAO-B [1], the IC50 is 2.67 ± 0.051 µM. Besides, the remaining activity at 10 µM on recombinant human MAO-A was found to be 73.3 ± 2.86%.

As to `O=C(Cn1nc(N2CCN(c3ccccc3F)CC2)ccc1=O)NN=Cc1ccccc1F` [Compound T9, 6-[4-(2-Fluorophenyl)piperazine-1-yl]-3(2H)-pyridazinone-2-acetyl-2-(2-fluorobenzal)hydrazon], the melting point is 225 to 226 °C. Moreover, at MAO-B [1], the IC50 is 0.2 ± 0.0017 µM and the “SI (IC50 of MAO-A/IC50 of MAO-B)” value came to 33.8. In addition, on recombinant human MAO-A, the remaining activity at 10 µM stood at 35.2 ± 0.56% and the IC50 was 6.76 ± 0.46 µM.

For `O=C(Cn1nc(N2CCN(c3ccccc3F)CC2)ccc1=O)NN=Cc1ccc(F)cc1` [Compound T10, 6-[4-(2-Fluorophenyl)piperazine-1-yl]-3(2H)-pyridazinone-2-acetyl-2-(4-florobenzal)hydrazon], the melting point lay within 178 to 180 °C. At MAO-B [1], the IC50 came to 35.3 ± 0.39 µM and the “SI (IC50 of MAO-A/IC50 of MAO-B)” value is 0.21. Besides, on recombinant human MAO-A, the remaining activity at 10 µM came out at 33.7 ± 4.7% and the IC50 is 7.35 ± 0.059 µM.

`COc1ccc(C=NNC(=O)Cn2nc(N3CCN(c4ccccc4F)CC3)ccc2=O)cc1` [Compound T11, 6-[4-(2-Fluorophenyl)piperazine-1-yl]-3(2H)-pyridazinone-2-acetyl-2-(4-methoxybenzal)hydrazon] had a melting point of 148 to 150 °C. On MAO-B [1], the IC50 was found to be 6.86 ± 0.37 µM. The remaining activity at 10 µM on recombinant human MAO-A came to 70.4 ± 8.5%.

In turn, `Cc1ccccc1C=NNC(=O)Cn1nc(N2CCN(c3ccccc3F)CC2)ccc1=O` [Compound T12, 6-[4-(2-Fluorophenyl)piperazine-1-yl]-3(2H)-pyridazinone-2-acetyl-2-(2-methylbenzal)hydrazon] registered a melting point of 244 to 245 °C. Moreover, the IC50 at MAO-B [1] was determined as 0.15 ± 0.021 µM. Moreover, the remaining activity at 10 µM at recombinant human MAO-A was 61.8 ± 1.65%.

In general, IC50 refers to the concentration at which inhibition is half-maximal. A word on the melting point: it is the temperature, or range, at which the solid turns liquid.
